One block for each molecule: values may come before it.
Key:
NLRP3 [1] = assay: D4D8T immunoprecipitation of NLRP3 from photo-labelled iBMDMs (FIG. 9D); details: ADS165, ADS167 1 mM; MCC 50 μM; UV 365 nm 30 mins
[2] = biological target: T1, recombinant full length NLRP1 (Homo sapiens, UniProt Q9C000); assay: Photo-affinity labelling of recombinant full length NLRP1, anti-PEG immunoblot (FIG. 9E); format: binding; details: pre-incubation, UV 365 nm, then ADS165
T1 sequence (Q9C000 1-1473): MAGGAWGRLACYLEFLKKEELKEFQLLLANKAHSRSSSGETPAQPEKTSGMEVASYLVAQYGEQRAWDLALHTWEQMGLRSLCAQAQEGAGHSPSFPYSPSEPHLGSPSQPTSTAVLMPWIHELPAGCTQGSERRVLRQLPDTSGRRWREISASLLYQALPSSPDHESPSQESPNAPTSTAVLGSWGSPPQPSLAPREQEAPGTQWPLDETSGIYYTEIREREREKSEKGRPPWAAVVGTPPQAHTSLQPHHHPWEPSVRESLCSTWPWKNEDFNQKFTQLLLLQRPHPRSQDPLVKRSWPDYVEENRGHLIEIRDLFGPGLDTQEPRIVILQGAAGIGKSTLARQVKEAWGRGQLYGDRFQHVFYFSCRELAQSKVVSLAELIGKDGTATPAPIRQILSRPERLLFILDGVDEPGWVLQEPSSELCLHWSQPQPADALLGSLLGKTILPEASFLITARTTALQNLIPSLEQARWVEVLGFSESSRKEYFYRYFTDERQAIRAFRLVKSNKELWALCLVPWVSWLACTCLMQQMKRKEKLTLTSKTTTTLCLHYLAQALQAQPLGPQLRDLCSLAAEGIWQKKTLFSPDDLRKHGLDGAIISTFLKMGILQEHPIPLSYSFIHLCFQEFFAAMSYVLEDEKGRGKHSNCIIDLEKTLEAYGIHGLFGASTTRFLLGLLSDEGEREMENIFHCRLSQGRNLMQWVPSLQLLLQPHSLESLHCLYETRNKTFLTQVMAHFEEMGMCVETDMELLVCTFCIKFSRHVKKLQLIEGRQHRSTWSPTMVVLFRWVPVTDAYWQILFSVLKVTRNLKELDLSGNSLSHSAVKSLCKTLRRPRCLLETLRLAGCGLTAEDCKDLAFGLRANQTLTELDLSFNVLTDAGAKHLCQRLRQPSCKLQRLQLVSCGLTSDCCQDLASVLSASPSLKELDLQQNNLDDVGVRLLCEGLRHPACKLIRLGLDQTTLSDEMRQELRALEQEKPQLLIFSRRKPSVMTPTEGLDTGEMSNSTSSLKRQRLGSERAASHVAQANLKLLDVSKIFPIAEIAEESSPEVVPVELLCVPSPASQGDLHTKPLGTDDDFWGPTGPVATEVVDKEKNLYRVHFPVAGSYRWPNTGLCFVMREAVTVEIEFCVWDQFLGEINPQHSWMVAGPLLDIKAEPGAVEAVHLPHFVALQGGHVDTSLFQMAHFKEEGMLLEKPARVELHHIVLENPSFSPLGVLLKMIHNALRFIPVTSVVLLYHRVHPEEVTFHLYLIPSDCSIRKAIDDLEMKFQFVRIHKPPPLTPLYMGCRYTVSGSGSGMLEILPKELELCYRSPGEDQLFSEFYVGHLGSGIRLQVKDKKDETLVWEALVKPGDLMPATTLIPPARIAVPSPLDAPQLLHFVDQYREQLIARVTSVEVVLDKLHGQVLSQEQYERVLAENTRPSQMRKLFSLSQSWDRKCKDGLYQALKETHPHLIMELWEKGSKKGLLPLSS
Description: FIGS. 9A-9F are a series of panels showing ADS032 (also referred to herein as “BT032”) directly binds to NLRP1 and NLRP3. FIGS. 9A and 9B are chemical structures of ADS165 and ADS167. […] ADS165 was then co-incubated for 20 mins and UV treated for 20 mins to cross-link associated compound and protein. Protein was separated by SDS-PAGE and immunoblotted (IB) with anti-PEG to visualize ADS165-linked protein. FIG. 9D: iBMDM cells stably expressing NLRP3-Flag were treated for 30 mins with ADS165, ADS167 (1 mM) or MCC955 (50 μM) for 30 mins, and irradiated with UV 365 nm for 30 mins. Cells were lysed with buffer and immunoprecipitation (IP) of NLRP3 performed with α-NLRP3 (D4D8T) antibody. Levels of precipitated (IP) and total cellular lysate (Input) NLRP3 were determined by immunoblotting with α-NLRP3 (Cryo-2) antibody. FIG. 9F: NLRP1-Flag was expressed in HEK293T cells (1×10^6) for 20 h and treated with ADS165 (1 mM) for 30 mins where indicated, followed by UV 365 nm for a further 30 mins. Cells were lysed with lysis buffer and […] immunoprecipitated with α-Flag (M2) antibody. Proteins were separated by SDS-PAGE and ADS165-linked NLRP1 identified by immunoblot with a-PEG, while total precipitated NLRP1 visualized by immunoblot with α-NLRP1 and total cell lysate by α-Flag. Data shown is representative of three independent experiments.
Next, it was determined whether ADSO32 could interact with NLRP1. […] To further investigate this interaction, ectopically expressed Flag-tagged NLRP1 was immunoprecipitated from cell lysates pretreated or not with ADS165 and exposed to UV light.

Recombinant NLRP3 = assay: Photo-affinity labelling of recombinant NLRP3, anti-PEG immunoblot (FIG. 9C); format: binding; details: pre-incubation 20 mins, UV 365 nm, then ADS165
NLRP3 [3] = biological target: T2, NLRP3 (Mus musculus, UniProt Q8R4B8); assay: NLRP3-induced IL-1β secretion from iBMDMs, photo-affinity probes; format: cell-based; details: data not shown
T2 construct: endogenous in cells; host or cells: iBMDMs
T2 sequence (Q8R4B8 whole entry): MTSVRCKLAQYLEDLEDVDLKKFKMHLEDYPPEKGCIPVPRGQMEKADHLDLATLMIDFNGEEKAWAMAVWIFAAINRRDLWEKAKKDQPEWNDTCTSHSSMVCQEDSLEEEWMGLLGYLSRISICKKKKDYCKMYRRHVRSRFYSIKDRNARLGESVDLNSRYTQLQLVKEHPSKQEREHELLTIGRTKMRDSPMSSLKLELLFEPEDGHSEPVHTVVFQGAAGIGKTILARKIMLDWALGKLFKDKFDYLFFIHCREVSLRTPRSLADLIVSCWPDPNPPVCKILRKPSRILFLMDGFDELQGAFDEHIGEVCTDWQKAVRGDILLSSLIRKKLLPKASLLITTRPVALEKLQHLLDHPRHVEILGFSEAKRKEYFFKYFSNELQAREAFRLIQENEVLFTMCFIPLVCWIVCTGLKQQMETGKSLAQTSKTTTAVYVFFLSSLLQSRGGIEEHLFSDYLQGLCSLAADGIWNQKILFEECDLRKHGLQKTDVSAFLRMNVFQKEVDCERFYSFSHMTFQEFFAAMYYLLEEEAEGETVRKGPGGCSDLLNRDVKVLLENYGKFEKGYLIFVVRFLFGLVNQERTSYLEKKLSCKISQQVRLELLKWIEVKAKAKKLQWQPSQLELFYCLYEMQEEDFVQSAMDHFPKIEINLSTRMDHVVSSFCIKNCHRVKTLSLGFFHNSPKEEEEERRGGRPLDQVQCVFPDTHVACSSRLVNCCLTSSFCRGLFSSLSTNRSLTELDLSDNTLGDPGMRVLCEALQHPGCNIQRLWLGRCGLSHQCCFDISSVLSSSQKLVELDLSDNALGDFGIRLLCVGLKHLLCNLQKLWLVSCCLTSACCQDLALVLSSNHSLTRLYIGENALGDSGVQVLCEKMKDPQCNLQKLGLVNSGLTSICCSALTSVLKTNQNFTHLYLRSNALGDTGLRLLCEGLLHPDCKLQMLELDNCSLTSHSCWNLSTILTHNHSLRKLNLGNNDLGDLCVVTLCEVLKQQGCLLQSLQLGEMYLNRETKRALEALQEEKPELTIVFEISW
Description: To verify interaction with target proteins, a photo-affinity labeling strategy (MacKinnon+Taunton, 2009) was developed where two modified versions of ADSO32 (1) containing an alkyne photoactivatable moiety linked with a PEG550 moiety to allow visualization (FIG. 9A) termed ADS165; and (2) ADSO32 linked with a diazirine photo-affinity label, (FIG. 9B) termed ADS167 were synthesized. Both photo-affinity labels covalently cross-link to molecular targets when exposed to ultraviolet light (365 nm).

NLRP1 inflammasome [4] = assay: IL-1β secretion in macrophages challenged with L18-MDP (FIG. 7); format: cell-based, human; details: 20, 100, 350 μM, L18-MDP 100 μg/mL 16 hours, secreted IL-1β
Description: (§1) In vitro stimulation of human macrophages.

NLRP3 inflammasome = NLRP3 inflammasome (Mus musculus, UniProt Q8R4B8); assay: IL-1β secretion (ELISA) in LPS-primed iBMDMs stimulated with silica or nigericin; format: cell-based, murine (C57BL/6); design: endogenous in cells; host or cells: immortalized wild-type C57BL/6 bone-marrow derived macrophages (iBMDMs), LPS-primed; details: compared with probenecid in DMSO or PBS
NLRP3 inflammasome, sequence (Q8R4B8 whole entry): as above
Description: In vitro stimulation of murine macrophages. Immortalized wild-type C57BL/6 bone-marrow derived macrophages (iBMDMs) were grown in DMEM supplemented with 10% heat inactivated FBS and 2 mM glutamine. iBMDMs were seeded in 96-well plates 24 hours prior incubation with lipopolysaccharide (LPS; 100 ng/mL) for 3 hours. Cells were then incubated with a control probenecid compound (probenecid dissolved in DMSO (Prob/D), probenecid dissolved in PBS (Prob/P)) or one of the probenecid analogs of the present technology (BT032, BT132, BT133, BT134, BT135, BT136, BT137, BT138, BT139, or BT140) at concentrations of 300 μM, 150 μM, 30 μM, or 3 μM 1 hour prior to stimulation with NLRP3 inflammasome activators, silica ([…]) or nigericin (6 μM). After an additional 6 hours, cell supernatants were collected and levels of IL-1β were quantified by ELISA. These experiments were run in triplicate three times.

NLRP1 inflammasome [5] = assay: IL-1β secretion in macrophages challenged with L18-MDP (FIG. 4C); format: cell-based, human; details: BT032 20, 100 μM; MCC950 5 μM; L18-MDP 100 μg/ml 16 h
Description: as §1

competition with ADS165 interaction with NLRP1 [2]: could ablate interaction | efficacy relative to ADS032 (NLRP3-induced IL-1β secretion) (NLRP3 [3]): reduced efficacy as compared to ADS032
Structure (SMILES): CCCCN(CCC)S(=O)(=O)c1ccc(-c2ccc(CCCC(=O)NCc3ccc(C4(C(F)(F)F)N=N4)cc3)cc2)cc1 [ADS167]
D4D8T-mediated NLRP3 immunoprecipitation (NLRP3 [1]): reduced the efficacy of D4D8T-mediated NLRP3 immunoprecipitation | competition with ADS165 labelling of NLRP3 (Recombinant NLRP3): inhibited the ability of ADS165 to label NLPR3 | NLRP3-induced IL-1β secretion from iBMDMs (NLRP3 [3]): still able to inhibit NLRP3-induced IL-1β secretion

Structure (SMILES): CCCN(CCC)S(=O)(=O)c1ccc(N2CCC(CCCC(=O)O)CC2)cc1 [BT135, 4-(1-(4-(N,N-dipropylsulfamoyl)-phenyl)piperidin-4-yl)butanoic acid]
NLRP1 (L18-MDP)-induced inflammasome activation (NLRP1 inflammasome [4]): dose-dependently inhibited

Structure (SMILES): CCCN(CCC)S(=O)(=O)c1ccc(-c2nc(CCCC(=O)O)cs2)cc1 [BT136, 4-(2-(4-(N,N-dipropylsulfamoyl)phenyl)thiazol-4-yl)butanoic acid]
potency versus control probenecid compounds (IL-1β secretion) (NLRP3 inflammasome): more potent than the control probenecid compounds | NLRP1 (L18-MDP)-induced inflammasome activation (NLRP1 inflammasome [4]): dose-dependently inhibited

competition with ADS165 interaction with NLRP1 [2]: no effect
Structure (SMILES): CC(C)(O)c1coc(S(=O)(=O)NC(=O)Nc2c3c(cc4c2CCC4)CCC3)c1 [MCC950, reference compound]
NLRP1 (L18-MDP)-induced inflammasome activation (NLRP1 inflammasome [5]): no impact
